Activity calls are given as the source filed them. The rule behind the calls is not given here.

Assay [1] concerns the target Acetylcholinesterase (Homo sapiens, UniProt P22303). In words: Inhibition of AChE (unknown origin) using acetylthiocholine iodide as substrate by Ellman's method.
The subject of assay [2] is Mus musculus. As to the kind of experiment: Neuroprotective activity in Swiss albino mouse model of STZ-induced cognition deficit assessed as reduction in Abeta42 deposition level in brain at 2.5 mg/kg, po administrated for 15 days by ELISA. The assay is classed as functional, organism-based.
In assay [3] the test system is Mus musculus. As to the kind of experiment: Cognitive enhancing effect in Swiss albino mouse model of STZ-induced cognition deficit assessed as increase in spontaneous alteration at 2.5 mg/kg, po administrated for 15 days and measured for 8 mins by Y-maze test. The assay is classed as functional, organism-based.
The test system of assay [4] is Mus musculus. In words: Memory enhancement effect in Swiss albino mouse model of STZ-induced cognition deficit assessed as increase in exploratory preference at 2.5 mg/kg, po administrated for 15 days and measured for 5 mins by novel object recognition test. It is filed as functional, organism-based.
In assay [5] the test system is Mus musculus. In words: Cognitive enhancing effect in Swiss albino mouse model of STZ-induced cognition deficit assessed as increase in time spent in target quadrant at 2.5 mg/kg, po administrated for 15 days and measured at 5th day of training session for 60 secs by Morris water maze test. The assay is classed as functional, organism-based.
For assay [6], the system named is Mus musculus. In words: Cognitive enhancing effect in Swiss albino mouse model of STZ-induced cognition deficit assessed as reduction in escape latency time to find removed platform position at 2.5 mg/kg, po administrated for 15 days and measured for 4 days by Morris water maze test. It is filed as functional, organism-based.
For assay [7], the system named is Mus musculus. As to the kind of experiment: Neuroprotective activity in Swiss albino mouse model of STZ-induced cognition deficit assessed as reduction in Abeta42 deposition level in brain at 3.7 mg/kg, po administrated for 15 days by ELISA. It is filed as functional, organism-based. On the technique in general: In an ELISA, binding on a coated surface is turned into a signal by an enzyme label.

In assay [8] the test system is Mus musculus. As to the kind of experiment: Cognitive enhancing effect in Swiss albino mouse model of STZ-induced cognition deficit assessed as increase in spontaneous alteration at 3.7 mg/kg, po administrated for 15 days and measured for 8 mins by Y-maze test. It is filed as functional, organism-based.
Assay [9] concerns Mus musculus. In words: Cognitive enhancing effect in Swiss albino mouse model of STZ-induced cognition deficit assessed as reduction in escape latency time to find removed platform position at 3.7 mg/kg, po administrated for 15 days and measured for 4 days by Morris water maze test. The assay is classed as functional, organism-based.
Assay [10] has as its system Mus musculus. As to the kind of experiment: Cognitive enhancing effect in Swiss albino mouse model of STZ-induced cognition deficit assessed as increase in time spent in target quadrant at 3.7 mg/kg, po administrated for 15 days and measured at 5th day of training session for 60 secs by Morris water maze test. It is filed as functional, organism-based.
Assay [11] concerns Mus musculus. In words: Memory enhancement effect in Swiss albino mouse model of STZ-induced cognition deficit assessed as increase in exploratory preference at 3.7 mg/kg, po administrated for 15 days and measured for 5 mins by novel object recognition test. It is filed as functional, organism-based.
Assay [12] relates to Mus musculus. As to the kind of experiment: Memory enhancement effect in Swiss albino mouse model of STZ-induced cognition deficit assessed as increase in exploratory preference at 3.2 mg/kg, po administrated for 15 days and measured for 5 mins by novel object recognition test. The assay is classed as functional, organism-based.
Assay [13] has as its system Mus musculus. In words: Cognitive enhancing effect in Swiss albino mouse model of STZ-induced cognition deficit assessed as increase in spontaneous alteration at 3.2 mg/kg, po administrated for 15 days and measured for 8 mins by Y-maze test. It is filed as functional, organism-based.
Assay [14] deals with Mus musculus. In words: Cognitive enhancing effect in Swiss albino mouse model of STZ-induced cognition deficit assessed as increase in time spent in target quadrant at 3.2 mg/kg, po administrated for 15 days and measured at 5th day of training session for 60 secs by Morris water maze test. It is filed as functional, organism-based.
Assay [15] concerns Mus musculus. In words: Cognitive enhancing effect in Swiss albino mouse model of STZ-induced cognition deficit assessed as reduction in escape latency time to find removed platform position at 3.2 mg/kg, po administrated for 15 days and measured for 4 days by Morris water maze test. It is filed as functional, organism-based.
Assay [16] relates to Mus musculus. As to the kind of experiment: Neuroprotective activity in Swiss albino mouse model of STZ-induced cognition deficit assessed as reduction in Abeta42 deposition level in brain at 3.2 mg/kg, po administrated for 15 days by ELISA. The assay is classed as functional, organism-based.

Acetylcholinesterase, sequence (P22303 whole entry): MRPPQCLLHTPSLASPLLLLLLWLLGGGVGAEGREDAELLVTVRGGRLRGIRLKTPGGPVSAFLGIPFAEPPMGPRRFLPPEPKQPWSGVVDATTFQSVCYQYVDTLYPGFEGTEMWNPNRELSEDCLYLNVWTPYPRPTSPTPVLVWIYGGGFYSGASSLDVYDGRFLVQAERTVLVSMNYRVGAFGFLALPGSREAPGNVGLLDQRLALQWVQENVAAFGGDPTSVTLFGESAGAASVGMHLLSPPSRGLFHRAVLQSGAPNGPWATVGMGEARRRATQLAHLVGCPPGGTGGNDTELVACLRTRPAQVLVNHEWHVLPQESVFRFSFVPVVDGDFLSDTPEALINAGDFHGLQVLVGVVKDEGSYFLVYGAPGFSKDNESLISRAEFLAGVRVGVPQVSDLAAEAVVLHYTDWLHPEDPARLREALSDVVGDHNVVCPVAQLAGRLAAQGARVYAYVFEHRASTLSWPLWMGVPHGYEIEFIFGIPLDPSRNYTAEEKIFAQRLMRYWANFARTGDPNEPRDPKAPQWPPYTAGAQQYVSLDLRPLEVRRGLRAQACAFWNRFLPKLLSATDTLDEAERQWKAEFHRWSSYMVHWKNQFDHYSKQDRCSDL

One may read the IC50 as the concentration at which inhibition is half-maximal. Read a low IC50 as greater potency. With `O=C1N/C(=N\c2ccc3oc(=O)ccc3c2)S/C1=C/c1ccc(F)cc1`, the IC50 in [1] is 216 nM.
Still for that read-out and setting: under `O=C(CNc1ccc(F)cc1)Nc1ccc2oc(=O)ccc2c1` stands 62 nM; under `CN(C)c1ccc(/C=C2/S/C(=N/c3ccc4oc(=O)ccc4c3)NC2=O)cc1`, 84 nM.
Same read-out and setting: under `COc1ccc(NCC(=O)Nc2ccc3oc(=O)ccc3c2)cc1` stands 55.2 nM; under `O=C1CSC(c2ccc(F)cc2)N1c1ccc2oc(=O)ccc2c1` (stereo not drawn), 102 nM.
As to `O=C1N/C(=N\c2ccc3oc(=O)ccc3c2)S/C1=C/c1ccc(Cl)cc1`, 173 nM corresponded to half-maximal inhibition in assay [1] (IC50).
The same measure, in the same setting: under `O=C1N/C(=N\c2ccc3oc(=O)ccc3c2)S/C1=C/c1ccc(Br)cc1` stands 276 nM; under `O=C(CNc1ccc2oc(=O)ccc2c1)N1CCN(c2ccccc2)CC1`, 80 nM; under `CSc1ccc(/C=C2/S/C(=N/c3ccc4oc(=O)ccc4c3)NC2=O)cc1`, 151 nM.
The same measure, in the same setting: under `O=C(CNc1ccc2oc(=O)ccc2c1)c1ccccc1` stands 148 nM; under `CSc1ccc(C2SCC(=O)N2c2ccc3oc(=O)ccc3c2)cc1` (stereo not drawn), 311 nM; under `O=C1N/C(=N\c2ccc3oc(=O)ccc3c2)S/C1=C/c1ccccc1`, 94.1 nM.
For `CN(C)c1ccc(/C=N/c2ccc3oc(=O)ccc3c2)cc1`, the result in assay [2], in assay [3], in assay [4], in [5] and in [6] was Active. The compound further yielded an IC50 in assay [1] of 41 nM.
In the case of `O=c1ccc2cc(/N=C/c3ccccc3)ccc2o1`, the IC50 in assay [1] was 114 nM.
Take `COc1ccc(C2SCC(=O)N2c2ccc3oc(=O)ccc3c2)cc1` (stereo not drawn): it took 71.1 nM to reach half-maximal inhibition in [1] (IC50).
The same measure, in the same setting: under `COc1ccc(/C=C2/S/C(=N/c3ccc4oc(=O)ccc4c3)NC2=O)cc1` stands 49.8 nM.
Still for that read-out and setting: in the case of `O=c1ccc2cc(/N=C/c3ccc(Br)cc3)ccc2o1` it was 56.9 nM.
As to `CSc1ccc(/C=N/c2ccc3oc(=O)ccc3c2)cc1`, the IC50 in assay [1] worked out at 172 nM.
In the case of `O=C(CNc1ccc2oc(=O)ccc2c1)N1CCOCC1`, the result in assay [7], in assay [8], in assay [9], in assay [10] and in [11] was Active. The compound further returned an IC50 in [1] of 37 nM.
Take `COc1ccc(C(=O)CNc2ccc3oc(=O)ccc3c2)cc1`: the outcome in assay [12], in assay [13], in assay [14], in [15] and in assay [16] was Active. In addition, in [1], the IC50 is 55 nM.
In assay [1], `O=c1ccc2cc(/N=C/c3ccc(Cl)cc3)ccc2o1` displayed an IC50 of 78.9 nM. That is a double-digit nanomolar value.
Same read-out and setting: under `O=c1ccc2cc(/N=C/c3ccc(F)cc3)ccc2o1` stands 226 nM; under `COc1ccc(/C=N/c2ccc3oc(=O)ccc3c2)cc1`, 135 nM.
